The numbers were not newly measured in patent publication US20040253692A1, “Streptomyces sp. CJPV975652 capable of converting compactin to pravastatin and method for producing pravastatin using the same” (priority 2003, published 2004), which cites them from elsewhere.

The conditions of series [1]: daily dosage of 5-10 mg for 3 months.
The next series deals with T1, HMG-CoA reductase (Homo sapiens, UniProt P04035).
T1 sequence (P04035 1-888): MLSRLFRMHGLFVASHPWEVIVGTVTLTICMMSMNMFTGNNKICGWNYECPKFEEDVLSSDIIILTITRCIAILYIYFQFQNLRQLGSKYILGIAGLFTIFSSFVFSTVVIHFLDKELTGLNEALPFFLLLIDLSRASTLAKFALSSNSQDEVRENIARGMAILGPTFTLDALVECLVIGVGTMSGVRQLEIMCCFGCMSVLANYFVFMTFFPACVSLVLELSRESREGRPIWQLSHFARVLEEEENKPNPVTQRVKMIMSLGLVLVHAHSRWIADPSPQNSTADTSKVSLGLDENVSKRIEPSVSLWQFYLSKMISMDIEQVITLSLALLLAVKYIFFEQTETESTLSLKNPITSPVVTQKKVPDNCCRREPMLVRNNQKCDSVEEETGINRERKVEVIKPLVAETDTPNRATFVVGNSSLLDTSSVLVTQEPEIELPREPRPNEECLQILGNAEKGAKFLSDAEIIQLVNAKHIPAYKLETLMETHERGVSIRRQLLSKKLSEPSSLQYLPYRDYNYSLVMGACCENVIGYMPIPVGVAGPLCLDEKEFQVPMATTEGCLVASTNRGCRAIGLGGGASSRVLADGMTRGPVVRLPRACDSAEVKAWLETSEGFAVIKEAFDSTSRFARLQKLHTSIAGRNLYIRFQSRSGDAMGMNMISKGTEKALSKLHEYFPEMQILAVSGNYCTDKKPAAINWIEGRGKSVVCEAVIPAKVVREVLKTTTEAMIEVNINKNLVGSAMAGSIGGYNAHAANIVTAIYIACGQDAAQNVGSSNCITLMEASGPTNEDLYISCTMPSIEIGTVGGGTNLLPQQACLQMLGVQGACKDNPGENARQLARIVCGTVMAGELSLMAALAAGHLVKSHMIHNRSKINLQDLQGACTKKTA
The following applies: compared with compactin.

As for `CC[C@H](C)C(=O)O[C@H]1C[C@H](O)C=C2C=C[C@H](C)[C@H](CC[C@@H](O)C[C@@H](O)CC(=O)O)[C@H]21` [pravastatin], in series [1], the “reduction of LDL-cholesterol level” value is recorded as 20-40% and the “reduction of total cholesterol level” value was 20-40%. For the same molecule, on HMG-CoA reductase, the “effectiveness as a HMG-CoA reductase inhibitor” value was “more effective than compactin”.
